Experimental data: patent US11666640B2, “Glucose oxidase compositions as a neonate anticonvulsant” (PENN STATE RESEARCH FOUNDATION, priority 2018, dated 2023)
Entries after “also recorded” stand apart in the source; their conditions may differ.

System: Cl− channels
Assay: Cl− current recording in cultured cortical neurons
Format: cell-based, mouse
Details: 10 mM NaGcA

For `O=C([O-])[C@H](O)[C@@H](O)[C@H](O)[C@H](O)CO.[Na+]` [NaGcA, D-gluconic acid sodium salt], the “Cl− currents” value (recorded at +90 mV) was 499±89 pA and the “Cl− currents (inhibition)” value (sodium salt) was “significantly decreased; also recorded: significant NaGcA inhibition”.
